In this test the target is human RIP1 kinase domain (2-375) (Homo sapiens (Human), UniProt Q13546). Description: RIP1 kinase inhibition assay (biochemical, Transcreener ADP fluorescence polarization). Conditions: Ki app (Morrison tight-binding fit); 50 nM enzyme, 50 μM ATP, 2 hours incubation, pH 7.5. Here is the method:
RIP1 Kinase Inhibition Assays (Biochemical Assay)
The compounds of the present invention were tested for their capacity to inhibit RIP1K activity as described below.
Enzyme assay: The ability of the receptor interacting protein kinase (RIPK1) to catalyze the hydrolysis of adenosine-5′-triphosphate (ATP) is monitored using the Transcreener ADP (adenosine-5′-diphosphate) assay (BellBrook Labs). Purified human RIP1 kinase domain (2-375) (50 nM) derived from a baculovirus-infected insect cell expression system is incubated with test compounds for 2 hours in 50 mM Hepes buffer (pH 7.5) containing 30 mM MgCl2, 1 mM dithiothreitol, 50 μM ATP, 0.002% Brij-35, and 0.5% dimethyl sulfoxide (DMSO). Reactions are quenched by the addition of 1× Bell Brooks Stop buffer B (20 mM Hepes (ph 7.5), 40 mM ethylenediaminetetraacetic acid and 0.02% Brij-35) containing an additional 12 mM EDTA and 55 μg/mL ADP2 antibody and 4 nM ADP-AlexaFluor® 633 tracer. The tracer bound to the antibody is displaced by the ADP generated during the RIP1K reaction, which causes a decrease in fluorescence polarization that is measured by laser excitation at 633 nm with a FP microplate reader M1000. Fractional activity was plotted against test article concentration. Using Genedata Screener software (Genedata; Basel, Switzerland), the data were fit to the tight-binding apparent inhibition constant (Ki^app) Morrison equation [Williams, J. W. and Morrison, J. F. (1979) The kinetics of reversible tight-binding inhibition. Methods Enzymol 63: 437-67]. The following equation was used to calculate fractional activity and Ki^app: […]
where [E]T and [I]T are the total concentrations of active enzyme and test article, respectively. […]
human RIP1 kinase domain (2-375), sequence (Q13546 2-375): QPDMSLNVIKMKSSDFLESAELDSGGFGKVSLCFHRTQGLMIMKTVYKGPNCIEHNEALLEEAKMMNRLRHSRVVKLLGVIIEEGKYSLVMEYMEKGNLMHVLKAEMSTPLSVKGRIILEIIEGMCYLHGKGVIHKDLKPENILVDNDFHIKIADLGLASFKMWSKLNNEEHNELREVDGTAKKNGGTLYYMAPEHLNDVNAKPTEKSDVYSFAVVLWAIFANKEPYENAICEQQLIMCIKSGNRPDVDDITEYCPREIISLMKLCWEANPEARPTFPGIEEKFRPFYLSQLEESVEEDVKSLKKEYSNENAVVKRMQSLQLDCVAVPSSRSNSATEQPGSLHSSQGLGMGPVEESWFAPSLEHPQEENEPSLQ
With `CN1C(=O)[C@@H](NC(=O)c2ncn(Cc3ccccc3)n2)CCc2c1ccc(=O)n2C` (single isomer, unassigned) [Example 1], the Ki is 233 nM.
`CN1C(=O)[C@@H](NC(=O)c2ncn(Cc3ccccc3F)n2)CCc2c1ccc(=O)n2C` (single isomer, unassigned) [Example 2] displayed a Ki of 156 nM.
To `CN1C(=O)[C@@H](NC(=O)c2ncn(Cc3ccccc3)n2)CCn2c1cccc2=O` (single isomer, unassigned) [Example 3] belongs 489 nM; to `CN1C(=O)[C@@H](NC(=O)c2ncn(Cc3ccccc3F)n2)CCn2c1cccc2=O` (single isomer, unassigned) [Example 4], 290 nM; to `CN1C(=O)[C@@H](NC(=O)c2ncn(Cc3ccccc3)n2)CCc2cn(C)c(=O)cc21` (single isomer, unassigned) [Example 5], 79 nM.
The same measure for `CN1C(=O)[C@@H](NC(=O)c2ncn(Cc3ccccc3F)n2)CCc2cn(C)c(=O)cc21` (single isomer, unassigned) [Example 6]: 49 nM.
The molecule `CN1C(=O)[C@@H](NC(=O)c2ncn(Cc3ccccc3)n2)CCc2cc(=O)n(C)cc21` (single isomer, unassigned) [Example 7] had a Ki of 173 nM.
To `CN1C(=O)[C@H](NC(=O)c2ncn(Cc3ccccc3)n2)CCc2cc(=O)n(C)cc21` (single isomer, unassigned) [Example 8] belongs above 10000 nM.
To `CN1C(=O)[C@@H](NC(=O)c2ncn(Cc3ccccc3F)n2)CCc2cc(=O)n(C)cc21` (single isomer, unassigned) [Example 9] belongs 111 nM; to `CN1C(=O)[C@H](NC(=O)c2ncn(Cc3ccccc3F)n2)CCc2cc(=O)n(C)cc21` (single isomer, unassigned) [Example 10], above 10000 nM; to `CN1C(=O)[C@@H](NC(=O)c2nc3n(n2)[C@H](c2ccccc2F)CC3)CCc2cc(=O)n(C)cc21` (single isomer, unassigned) [Example 11], 231 nM.
As for `CN1C(=O)[C@H](NC(=O)c2nc3n(n2)[C@H](c2ccccc2F)CC3)CCc2cc(=O)n(C)cc21` (single isomer, unassigned) [Example 12], the Ki was above 10000 nM.
In turn, `CN1C(=O)[C@@H](NC(=O)c2nc3n(n2)[C@H](c2ccccc2F)CC3)CCc2cn(CC3CC3)c(=O)cc21` (single isomer, unassigned) [Example 14] had a Ki of 56 nM.
Regarding `CN1C(=O)[C@@H](NC(=O)c2ncn(Cc3ccccc3F)n2)CCc2cn(CC3CC3)c(=O)cc21` (single isomer, unassigned) [Example 15], the Ki is 39 nM.
To `CN1C(=O)[C@H](NC(=O)c2nc3n(n2)[C@H](c2ccccc2F)CC3)CCc2cn(CC3CC3)c(=O)cc21` (single isomer, unassigned) [Example 16] belongs 6900 nM.
To `CN1C(=O)[C@H](NC(=O)c2ncn(Cc3ccccc3F)n2)CCc2cn(CC3CC3)c(=O)cc21` (single isomer, unassigned) [Example 17] belongs 6900 nM; to `CCn1cc2c(cc1=O)N(C)C(=O)[C@@H](NC(=O)c1nc3n(n1)[C@H](c1ccccc1F)CC3)CC2` (single isomer, unassigned) [Example 18], 110 nM; to `CCn1cc2c(cc1=O)N(C)C(=O)[C@@H](NC(=O)c1ncn(Cc3ccccc3F)n1)CC2` (single isomer, unassigned) [Example 19], 110 nM.
The same measure for `CCn1cc2c(cc1=O)N(C)C(=O)[C@H](NC(=O)c1nc3n(n1)[C@H](c1ccccc1F)CC3)CC2` (single isomer, unassigned) [Example 20]: above 10000 nM; for `CCn1cc2c(cc1=O)N(C)C(=O)[C@H](NC(=O)c1ncn(Cc3ccccc3F)n1)CC2` (single isomer, unassigned) [Example 21]: above 10000 nM; for `CN1C(=O)[C@H](NC(=O)c2ncn(Cc3ccccc3F)n2)CCc2c1ccc(=O)n2C` (single isomer, unassigned) [Example 22]: above 10000 nM.
The molecule `CN1C(=O)[C@H](NC(=O)c2ncn(Cc3ccccc3)n2)CCc2c1ccc(=O)n2C` (single isomer, unassigned) [Example 23] came in with a Ki above 10000 nM.
For the molecule `CN1C(=O)[C@@H](NC(=O)c2nc3n(n2)[C@H](c2ccccc2F)CC3)CCc2cn(C)c(=O)cc21` [Example 13, (5S)-5-(2-fluorophenyl)-N-[(3S)-1,7-dimethyl-2,8-dioxo-4,5-dihydro-3H-pyrido[4,3-b]azepin-3-yl]-6,7-dihydro-5H-pyrrolo[1,2-b][1,2,4]triazole-2-carboxamide], the Ki worked out at 81.1 nM.

These data come from patent US10947226B2, “Bicyclic pyridone lactams and methods of use thereof” (Genentech, Inc., priority 2016, dated 2021).
